# Experimental data taken from patent US8710095B2, “Drugs for prophylaxis or mitigation of taxane-induced neurotoxicity” (Bionumerik Pharmaceuticals, Inc., priority 2002, dated 2014).
# “Also recorded” adds a separate entry of the source.
# Legend:
# [1] = system: patients in the Phase I studies (US & Japan); test: US & Japan Phase I studies overall, incidence of neurotoxicity; assay type: in vivo, human
# Protocol: Human clinical trials have been conducted in the United States, Europe and Japan regarding the safety and efficacy of the agents that make up this invention. These trials are ongoing. The following is a summary of the results obtained from early-stage (Phase 1) trials in the United States and Japan.
# The number and percentage of patients who reported neurotoxicity in the Phase I studies compared with historical control data are summarized on the next page. Severity grades were measured according to NCI-CTC standards.
# Overall, peripheral neuropathy, such as numbness, paresthesia or tingling, was reported in 54.5% of patients (30 patients, all severities) in the Phase I studies. The majority of neurotoxicity events experienced was mild in severity where 38.2% of patients (21 patients) reported Grade 1 neurotoxicity.
# female Wistar rats = test: Paclitaxel-induced abnormal thermoesthesia, latent period for pseudo pain reactions (hot water bath 45° C.); assay type: in vivo, rat
# Protocol: Paclitaxel was intravenously administered at a dose of 6 mg/kg once daily to female Wistar rats (8 rats per group) (the initial dosage date was defined as day 0). Treatment was repeated five times every other day.
# The efficacy of 2,2′-dithiobis ethane sulfonate on the abnormal thermoesthesia occurring in response to the paclitaxel therapy was assessed using, as an index, a latent period for pseudo pain reactions. […] Each pseudo pain reaction-related latent period was measured on the day before the initial paclitaxel dosage (day −1, pretreatment), and daily for three days from the next day after the final paclitaxel dosage (from days 9 to 11, post-treatment), i.e., totally four times.
# 2,2′-dithiobis ethane sulfonate was, dissolved in water for injection to make its concentration 200 mg/ml upon use and the 2,2′-dithiobis ethane sulfonate solution thus prepared was intravenously administered at the dose of 500 mg/kg or 1,000 mg/kg immediately before the paclitaxel administration.
# cancer patients = test: Individual patient cases (Examples 2 to 7): BNP7787 with paclitaxel and cisplatin; assay type: in vivo, human; conditions: for tumor response: with paclitaxel and cisplatin; for peripheral neurotoxicity: 3 cycles
# Protocol: A patient with adenocarcinoma of unknown origin presented with a pituitary mass and supraclavicular and mediastinal lymph nodes. They received the following treatment regimen every 3 weeks: a single dose of paclitaxel (175 mg/m^2) administered IV over 3 hours, pre-cisplatin saline hydration (500 mL 0.9% NaCl) for 1 hour, a single dose of BNP7787 (18.4 g/m^2) administered IV over 15 minutes, immediately followed by a single dose of cisplatin (75 mg/m^2) administered IV over 1 hour and subsequently post-cisplatin saline hydration (250 mL 0.9% NaCl) for 30 minutes. The patient received a total of six cycles of study treatment and experienced peripheral neuropathy (NCI-CTC Grade 2) during Cycles 4 through 6.
# A patient with adenocarcinoma of gastric origin received the following treatment regimen every 3 weeks: a single dose of paclitaxel (175 mg/m^2) administered IV over 3 hours, pre-cisplatin saline hydration (500 mL 0.9% NaCl) for 1 hour, a single dose of BNP7787 (18.4 g/m^2) administered IV over 15 minutes, immediately followed by a single dose of cisplatin (75 mg/m^2) administered IV over 1 hour and subsequently post-cisplatin saline hydration (250 mL 0.9% NaCl) for 30 minutes.
# A patient with adenocarcinoma of unknown origin presented with retroperitoneal and lung masses. They received the following treatment regimen every 3 weeks: a single dose of paclitaxel (175 mg/m^2) administered IV over 3 hours, pre-cisplatin saline hydration (250 mL 0.9% NaCl) for 30 minutes, a single dose of BNP7787 (18.4 g/m^2) administered IV over 15 minutes, immediately followed by a single dose of cisplatin (75 mg/m^2) administered IV over 1 hour and subsequently post-cisplatin saline hydration (250 mL 0.9% NaCl) for 30 minutes. The patient received a total of six cycles of study treatment and experienced Grade 1 numbness and tingling (peripheral neuropathy) beginning Day 2 of Cycle 1 which resolved on Day 5. The patient again experienced Grade 1 peripheral neuropathy during Cycle 4.
# (§1) A patient with adenocarcinoma of the lung received the following treatment regimen every 3 weeks: a single dose of paclitaxel (175 mg/m^2) administered IV over 3 hours, pre-cisplatin saline hydration for 1 hour, immediately followed by a single dose of BNP7787 (18.4 g/m^2) administered IV over 30 minutes, a single dose of cisplatin (75 mg/m^2) administered IV over 1 hour and subsequently post-cisplatin saline hydration for 1.5 hours.
# as §1, with “hours. The patient received a total of 3 cycles of study treatment and experienced Grade 1 peripheral neurotoxicity beginning on Day 6 of Cycle 3, which resolved on Day 20 of Cycle 3.” for “hours.”
# A patient with large cell carcinoma of the lung received the following treatment regimen every 3 weeks: a single dose of paclitaxel (175 mg/m^2) administered IV over 3 hours, pre-cisplatin saline hydration for 1 hour, immediately followed by a single dose of BNP7787 (18.4 g/m^2) administered IV over 30 minutes, a single dose of cisplatin (75 mg/m^2) administered IV over 1 hour and subsequently post-cisplatin saline hydration for 1.5 hours. The patient received a total of 3 cycles of study treatment and experienced Grade 1 peripheral neurotoxicity beginning on Day 5 of Cycle 2.
# [2] = Overall (US & Japan) (n = 55), all doses 4.1 to 41.0 g/m^2, with paclitaxel and cisplatin
# [3] = Phase I studies US & Japan, with paclitaxel and cisplatin
smiles,measurement,setting,value
"O=S(=O)([O-])CCSSCCS(=O)(=O)[O-].[Na+].[Na+] [2,2′-dithiobis ethane sulfonate]","Incidence of neurotoxicity, Neurotoxicity Grade (NCI-CTC) 1",[1]; [2],21 (38.2) Number (%) of Patients
same,"Incidence of neurotoxicity, Neurotoxicity Grade (NCI-CTC) 2",[1]; [2],9 (16.4) Number (%) of Patients
same,"Incidence of neurotoxicity, Neurotoxicity Grade (NCI-CTC) 3",[1]; [2],0 (0.0) Number (%) of Patients
same,"Incidence of neurotoxicity, Neurotoxicity Grade (NCI-CTC) 4",[1]; [2],0 (0.0) Number (%) of Patients
same,"Incidence of neurotoxicity, Neurotoxicity Grade (NCI-CTC) ≧2",[1]; [2],9 (16.4) Number (%) of Patients
same,"Incidence of neurotoxicity, Overall (all grades)",[1]; [2],30 (54.5) Number (%) of Patients
same,incidence of moderate to severe (≧Grade 2) neurotoxicity,[1]; [3],16.4%
same,"overall incidence of neurotoxicity (peripheral neuropathy, all severities), patients",[1]; [3],54.5%
same,patients who reported Grade 1 neurotoxicity,[1]; [3],38.2%
same,patients who reported Grade 2 peripheral neuropathy,[1]; [3],16.4%
same,Grade 3 or 4 neurotoxicity,"[1]; Phase I studies, including patients who received up to 9 cycles of chemotherapy",No patient experienced Grade 3 or 4 neurotoxicity
same,peripheral neuropathy as dose limiting toxicity,[1]; administered concurrently with paclitaxel and cisplatin chemotherapy,not a dose limiting toxicity
same,effect on incidence of neurotoxicity versus historical control,[1]; concurrent administration with cisplatin and paclitaxel chemotherapy,decreases the incidence of neurotoxicity
same,Inhibition Rate (of latent period elongation),"female Wistar rats; 500 mg/kg iv with paclitaxel 6 mg/kg, Day 9",(17.8) %
same,Inhibition Rate (of latent period elongation),"female Wistar rats; 500 mg/kg iv with paclitaxel 6 mg/kg, Day 10",(18.0) %
same,Inhibition Rate (of latent period elongation),"female Wistar rats; 500 mg/kg iv with paclitaxel 6 mg/kg, Day 11",(19.4) %
same,Inhibition Rate (of latent period elongation),"female Wistar rats; 1,000 mg/kg iv with paclitaxel 6 mg/kg, Day 9",(43.3) %
same,Inhibition Rate (of latent period elongation),"female Wistar rats; 1,000 mg/kg iv with paclitaxel 6 mg/kg, Day 10",(38.0) %
same,Inhibition Rate (of latent period elongation),"female Wistar rats; 1,000 mg/kg iv with paclitaxel 6 mg/kg, Day 11",(51.0) %
same,effect on elongation of the latent period,"female Wistar rats; 1000 mg/kg, day 9, p<0.05, Dunnet test",significant suppressing effects
same,effect on latent period,female Wistar rats; groups receiving 500 mg/kg or 1000 mg/kg in advance of paclitaxel,suppressing tendency as a whole
same,effect on paclitaxel-induced abnormal thermoesthesia,female Wistar rats; overall conclusion of Example 1,mitigates effectively
same,tumor response,"cancer patients; Example 2: after Cycle 2, confirmed after Cycles 4 and 6",complete response
same,peripheral neuropathy (NCI-CTC),"cancer patients; Example 2: person, adenocarcinoma of unknown origin, 18.4 g/m^2, six cycles, during Cycles 4 through 6",Grade 2
same,peripheral neuropathy,"cancer patients; Example 3: person, adenocarcinoma of gastric origin, 18.4 g/m^2, five cycles",no peripheral neuropathy
same,tumor response,"cancer patients; Example 3: stable Cycles 2 through 4, progression following Cycle 5, listed as BNP7787",stable disease; also recorded: progressive disease
same,tumor response,"cancer patients; Example 4: partial after Cycle 2, complete after Cycle 6, listed as BNP7787",partial response; also recorded: complete response
same,peripheral neuropathy (numbness and tingling),"cancer patients; Example 4: person, adenocarcinoma of unknown origin, 18.4 g/m^2, six cycles, Cycle 1 Day 2 to 5 and Cycle 4",Grade 1
same,tumor response,cancer patients; Example 5: after Cycles 2 and 3,partial response
same,peripheral neurotoxicity,"cancer patients; Example 5: person, adenocarcinoma of the lung, 18.4 g/m^2",no peripheral neurotoxicity
same,tumor response,cancer patients; Example 6: after Cycles 2 and 3,partial response
same,peripheral neurotoxicity,"cancer patients; Example 6: person, adenocarcinoma of the lung, 18.4 g/m^2, Day 6 to Day 20 of Cycle 3",Grade 1
same,peripheral neurotoxicity,"cancer patients; Example 7: person, large cell carcinoma of the lung, 18.4 g/m^2, beginning Day 5 of Cycle 2",Grade 1
same,tumor response,cancer patients; Example 7,stable disease
